According to US20180353457A1, “ABIETANE DITERPENOID 7-ACETOXYROYLEANONES FOR USE IN CANCER TREATMENT” (University of South Carolina, priority 2017, published 2018):

Assays:
[1] = system: RXF 393 (renal cancer) cells; test: NCI-60 five dose screen, RXF 393; conditions: read-out: LC50; RXF 393, Renal
[2] = system: OVCAR-3 (ovarian cancer) cells; test: NCI-60 five dose screen, OVCAR-3; conditions: read-out: LC50; OVCAR-3, Ovarian
[3] = read-out: LC50; melanoma cell line SK-OV-3 (so in the source), most sensitive to cell death
[4] = system: HCC-2996 (colon cancer) cells; test: NCI-60 five dose screen, HCC-2996
[5] = system: MDA-MB-468 (breast cancer) cells; test: NCI-60 five dose screen, MDA-MB-468; conditions: read-out: LC50; MDA-MB-468, Breast
[6] = system: A2780ADR (doxorubicin resistant subclone of ovarian carcinoma A2780) cells; test: MTS cytotoxicity assay, A2780ADR; format: cell-based; conditions: 48 and 72 hours of exposure
Description: (§1) Human cell lines used included MG-63 (osteosarcoma), SK-OV-3 (ovarian adenocarcinoma), MDA-MB-231 (breast adenocarcinoma derived from a metastatic site), HCT 116 (colorectal carcinoma), HCT 116/200 (an FdUrd resistant subclone of HCT 116 cells), and A2780ADR (a doxorubicin resistant subclone of the ovarian carcinoma A2780). All cells were stored in liquid nitrogen until use. MG-63, SK-OV-3, MDA-MB-231, and HCT 116 cell lines were all obtained from ATCC. A2780ADR cells were obtained from Sigma-Aldrich. HCT 116/200 cells were obtained from Dr. Franklin G. Berger from the Center for Colon Cancer Research. MG-63 cells were maintained in MEM medium (Corning) supplemented with 10% Fetal Bovine Essence (VWR) and 1% penicillin/streptomycin solution (Corning). SK-OV-3 cells were maintained in McCoy's 5A Medium (Sigma) supplemented with Fetal Bovine Essence and 1% penicillin/streptomycin. […]
(§2) Cells were first grown to approximately 80% confluency within […] tissue culture flasks (VWR). […] Cells were counted using a hemocytometer and their viability was confirmed using trypan blue (Gibco). […]
(§3) In combination studies, 7-acetoxyroyleanone and FdUrd were first mixed into the same media and then added to the cells. […] The cells were incubated for 2 hours, and the absorbance of each well at 490 nm was measured using a Spectramax 190 microplate reader.

[7] = system: HCT 116/200 (FdUrd resistant subclone of HCT 116) cells; test: MTS cytotoxicity assay, HCT 116/200; format: cell-based; conditions: HCT 116/200 cells
Description: as §1, §2, §3

[8] = system: A498 (renal cancer) cells; test: NCI-60 five dose screen, A498; conditions: read-out: LC50; A498, Renal
[9] = system: HOP-92 (non-small cell lung cancer) cells; test: NCI-60 five dose screen, HOP-92; conditions: read-out: LC50; HOP-92, Non-small Cell Lung Cancer
[10] = system: NCI-H522 (non-small cell lung cancer) cells; test: NCI-60 five dose screen, NCI-H522; conditions: read-out: LC50; NCI-H522, Non-small Cell Lung Cancer
[11] = system: DU-145 (prostate cancer) cells; test: NCI-60 five dose screen, DU-145; conditions: read-out: LC50; DU-145, Prostate
[12] = system: SF-295 (CNS cancer) cells; test: NCI-60 five dose screen, SF-295; conditions: read-out: LC50; SF-295, CNS
leukemia cell lines = conditions: read-out: LC50; each leukemia cell line; not reached at highest concentration tested
[13] = system: SK-OV-3 (ovarian adenocarcinoma) cells; test: MTS cytotoxicity assay, SK-OV-3; format: cell-based; conditions: SK-OV-3 cells
Description: as §1, §2, §3

[14] = system: COLO 205 (colon cancer) cells; test: NCI-60 five dose screen, COLO 205; conditions: read-out: LC50; COLO 205, Colon
[15] = HCC-2996, most sensitive cell line to growth inhibition

CC(=O)O[C@@H]1C[C@H]2C(C)(C)CCC[C@]2(C)C2=C1C(=O)C(C(C)C)=C(O)C2=O [7-acetoxyroyleanone]
CC50 [1]: 5.87 µM | CC50 [2]: 7.46 µM | CC50 [3]: 4.34 µM | GI50 [4, 15]: 0.405 µM | TGI [4, 15]: 1.62 µM | CC50 ([4]; read-out: LC50, HCC-2996, Colon): 6.41 µM | CC50 [5]: 9.46 µM | cytotoxicity (percent viability) [6]: significant cytotoxic properties | cytotoxicity (percent viability) ([7]; 48 and 72 hours of exposure): significant cytotoxic properties | cytotoxic effect in combination with FdUrd (percent viability, cell number) ([7]; 48 hour exposure, combined with 1 μg/mL FdUrd): synergistic cytotoxic effect | CC50 [8]: 5.19 µM | CC50 [9]: 5.4 µM | CC50 [10]: 9.02 µM | CC50 [11]: 5.67 µM | CC50 [12]: 7.37 µM | CC50 (leukemia cell lines): > 100 µM | cell death at the lowest concentration tested ([13]; 1 μg/mL): cell death was indicated | cytotoxicity (percent viability) ([13]; 48 and 72 hours of exposure, MTS): significant cytotoxic properties | CC50 [14]: 6.3 µM
